Assay results published in US7271161B2, “Platinum complexes as antitumor agents in combination with biochemical modulation” (Board of Regents, the University of Texas System, priority 2002, dated 2007).
Like-named read-outs stand apart in the source and are kept apart here.

What was measured:
[1] = test system: Human 2780CP cell line; test: MTT cytotoxicity assay, cisplatin-resistant ovarian 2780CP cells, with or without BSO; format: cell-based; set-up: key to DMF vs. 2780CP Control (Without BSO) / DMF Control / DMF +BSO (MTC): DMF = IC50 without BSO / IC50 with BSO; conditions: for DMF vs. 2780CP +10 μM BSO: IC50 without BSO / IC50 with 10 μM BSO; for DMF vs. 2780CP +3 mM BSO (MTC): IC50 without BSO / IC50 with 3 mM BSO (MTC); for DMF vs. 2780CP Control (Without BSO): without BSO (reference)
Source text: (§1) The ovarian A2780 and 2008 cell lines are sensitive to cisplatin, while the corresponding 2780CP and 2008/C13* cell lines were selected for resistance following in vitro exposure to cisplatin. The SKOV-3 cell line was established from a patient who was resistant to cisplatin therapy and is considered a model of cisplatin resistance. The A2780 and 2780CP cells have wild-type p53 function, while SKOV-3 is devoid of p53 function. The p53 status for the 2008 and 2008/C131 cells is presently not known.
(§2) Procedure for Cytotoxic Evaluation. All cell lines are maintained in RPMI 1640 medium supplemented with 10% fetal bovine serum, 50 μg/ml penicillin, 50 μg/ml streptomycin, 100 μg/ml neomycin and 0.3 mg/ml L-glutamine. The ovarian lines also require 2 μg/ml insulin for maximal growth. Cells are grown as monolayers at 37° C. in a humidified atmosphere of 5% CO2:95% air. Cytotoxicity is determined by a standard MTT assay. Briefly, the exponentially-growing cells are trypsinized to dislodge them before use. After diluting the tumor cells to appropriate concentrations (2,000-30,000 cells/ml), 100 μl aliquots of the cell suspensions are added to each well of a 96-well microtiter plate. The cells are allowed to attach overnight, and then exposed for 24 hr to BSO at a concentration that is equal to or less than maximally tolerated concentration (MTC). At 22 hr after addition of BSO, the platinum complex is added, and 2 hr later the cells are washed and reincubated. After another 5 days, when control cells are in an exponential phase of growth, 50 μl of an MTT solution (3 mg/ml) is added to each well. Following a 3-hr incubation, the medium is removed and replaced by 50 μl of 100% DMSO to dissolve MTT formazan crystals. Plates are agitated on a plate shaker for 5 min, and absorbances are measured at 570 nm in a multiwell scanning spectrophotometer.
(§3) IC50 values, defined as the drug concentration (μM) inhibiting cell growth by 50% compared to control wells, are determined by fitting a sigmoidal curve to the data using a computer program. Resistance factor is calculated as a ratio of the IC50 against resistant cell line to the IC50 against parent cell line. The dose modification factor (DMF) is derived from a ratio of IC50 without BSO to that with BSO.

[2] = test system: Human A2780 cell line; test: MTT cytotoxicity assay, cisplatin-sensitive ovarian A2780 cells, with or without BSO; format: cell-based; set-up: key to DMF vs. A2780 Control (Without BSO): DMF = IC50 without BSO / IC50 with BSO; conditions: for DMF vs. A2780 +10 μM BSO (MTC): IC50 without BSO / IC50 with 10 μM BSO (MTC); for DMF vs. A2780 Control (Without BSO): without BSO (reference)
Source text: as §1, §2, §3

[3] = +10 μM BSO, read-out: IC50 (μM) vs. 2780CP +10 μM BSO
[4] = +3 mM BSO (MTC), read-out: IC50 (μM) vs. 2780CP +3 mM BSO (MTC)
[5] = IC50 2780CP with 10 μM BSO / IC50 A2780 without BSO
[6] = IC50 2780CP with 3 mM BSO (MTC) / IC50 A2780 without BSO
[7] = IC50 2780CP without BSO / IC50 A2780 without BSO
[8] = without BSO, read-out: IC50 (μM) vs. 2780CP Control (Without BSO)
[9] = +10 μM BSO (MTC), 24 hr BSO, read-out: IC50 (μM) vs. A2780 +10 μM BSO (MTC)
[10] = without BSO, 2 hr platinum exposure, MTT after 5 days, read-out: IC50 (μM) vs. A2780 Control (Without BSO)

| SMILES | Resistance Factor vs. 2780CP +10 μM BSO [1] | Resistance Factor vs. 2780CP +3 mM BSO (MTC) [1] | Resistance Factor vs. 2780CP Control (Without BSO) [1] | IC50 [1, 3] | IC50 [1, 4] | Resistance Factor vs. 2780CP +10 μM BSO [1, 5] | Resistance Factor vs. 2780CP +3 mM BSO (MTC) [1, 6] | Resistance Factor vs. 2780CP Control (Without BSO) [1, 7] | DMF vs. 2780CP +10 μM BSO [1] | DMF vs. 2780CP +3 mM BSO (MTC) [1] | DMF vs. 2780CP Control (Without BSO) [1] | IC50 [1, 8] | IC50 [2, 9] | DMF vs. A2780 +10 μM BSO (MTC) [2] | DMF vs. A2780 Control (Without BSO) [2] | IC50 [2, 10] |
| --- | --- | --- | --- | --- | --- | --- | --- | --- | --- | --- | --- | --- | --- | --- | --- | --- |
| N[C@@H]1CCCC[C@H]1N.[Cl][Pt+2]([Cl])([Cl])[Cl] [Complex 13, Tetraplatin, reference compound] | 4.12 | 2.77 | 5.28 | – | – | – | – | – | – | – | – | – | – | – | – | – |
| [NH2][Pt]([Cl])([Cl])[NH]C1CCCC1 [Complex 5, Ammine/cyclopentylamine-dichloro-platinum(II)] | – | – | – | 14.5 µM | 9.07 µM | 19.9 | 12.4 | 20.8 | 1.05 | 1.68 | 1.00 | 15.2 µM | 0.66 µM | 1.11 | 1.00 | 0.73 µM |
| [NH2][Pt]([Cl])([Cl])[N]1CCCC1 [Complex 10] | – | – | – | 28.2 µM | 17.2 µM | 6.91 | 4.22 | 9.12 | 1.32 | 2.16 | 1.00 | 37.2 µM | 2.9 µM | 1.41 | 1.00 | 4.08 µM |
| [NH2][Pt]([NH2])([Cl])[Cl] [Complex 1] | – | – | – | 82 µM | 58.3 µM | – | – | – | 1.23 | 1.73 | 1.00 | 101 µM | 4.25 µM | 1.59 | 1.00 | 6.75 µM |
| [Cl][Pt]1([Cl])([Cl])([Cl])[NH][C@@H]2CCCC[C@H]2[NH]1 (racemic) [Complex 13] | – | – | – | 34.9 µM | 23.5 µM | – | – | – | 1.28 | 1.91 | 1.00 | 44.8 µM | 4.57 µM | 1.86 | 1.00 | 8.48 µM |
| [NH2][Pt]([Cl])([Cl])[N]1CCC1 [Complex 9] | – | – | – | 18.7 µM | 8.2 µM | 4.38 | 1.92 | 6.37 | 1.45 | 3.32 | 1.00 | 27.2 µM | 3.02 µM | 1.41 | 1.00 | 4.27 µM |
| [Cl][Pt]1([Cl])[NH][C@@H]2CCCC[C@H]2[NH]1 [Complex 2] | – | – | – | 3.69 µM | 2.46 µM | 6.59 | 4.39 | 8.23 | 1.25 | 1.87 | 1.00 | 4.61 µM | 0.41 µM | 1.37 | 1.00 | 0.56 µM |
